According to the supplement of paper PMC10307832:

How the values were obtained:
Assay in all cases: relative viability (nuclei count vs DMSO), 5 days (fraction); higher = more cells survive
Carboplatin + Trametinib = compound: C1CC(C1)(C(=O)O)C(=O)O.[NH2-].[NH2-].[Pt+2] [Carboplatin] + CC(=O)Nc1cccc(-n2c(=O)n(C3CC3)c(=O)c3c(Nc4ccc(I)cc4F)n(C)c(=O)c(C)c32)c1 [Trametinib] (partner 0.02 µM)
In short: (§1)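 One day after seeding in 1536-well plates, lung cancer cell lines were dosed by pin tool. Dosing was either single-drug or a fixed anchor-drug dose plus five library-drug doses (not always all listed) in √10 steps. After 5 days, nuclei were stained in one fix-and-stain step and counted on 4× images, and relative viability is the nuclei count of treated wells over that of vehicle wells, given as the median of duplicate plates.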

Carboplatin + Crizotinib = compound: C1CC(C1)(C(=O)O)C(=O)O.[NH2-].[NH2-].[Pt+2] [Carboplatin] + C[C@@H](Oc1cc(-c2cnn(C3CCNCC3)c2)cnc1N)c1c(Cl)ccc(F)c1Cl [Crizotinib] (partner 1 µM)
In short: as §1

GSK126 + Pictilisib = compound: CC[C@H](C)N1C=C(C2=C(C=C(C=C21)C3=CN=C(C=C3)N4CCNCC4)C(=O)NCC5=C(C=C(NC5=O)C)C)C [GSK126] + CS(=O)(=O)N1CCN(Cc2cc3nc(-c4cccc5[nH]ncc45)nc(N4CCOCC4)c3s2)CC1 [Pictilisib] (partner 1 µM)
In short: as §1

GSK126 + Olaparib = compound: CC[C@H](C)N1C=C(C2=C(C=C(C=C21)C3=CN=C(C=C3)N4CCNCC4)C(=O)NCC5=C(C=C(NC5=O)C)C)C [GSK126] + O=C(c1cc(Cc2n[nH]c(=O)c3ccccc23)ccc1F)N1CCN(C(=O)C2CC2)CC1 [Olaparib] (partner 8 µM)
In short: as §1

Row | Cell Line | relative viability (Carboplatin + Trametinib; first compound 0.08 µM) | relative viability (Carboplatin + Trametinib; first compound 0.253 µM) | relative viability (Carboplatin + Trametinib; first compound 0.8 µM) | relative viability (Carboplatin + Trametinib; first compound 2.53 µM) | relative viability (Carboplatin + Trametinib; first compound 8 µM) | relative viability (Carboplatin + Crizotinib; first compound 0.08 µM) | relative viability (Carboplatin + Crizotinib; first compound 0.253 µM) | relative viability (Carboplatin + Crizotinib; first compound 0.8 µM) | relative viability (Carboplatin + Crizotinib; first compound 2.53 µM) | relative viability (Carboplatin + Crizotinib; first compound 8 µM) | relative viability (GSK126 + Pictilisib; first compound 0.08 µM) | relative viability (GSK126 + Pictilisib; first compound 0.253 µM) | relative viability (GSK126 + Pictilisib; first compound 0.8 µM) | relative viability (GSK126 + Pictilisib; first compound 2.53 µM) | relative viability (GSK126 + Pictilisib; first compound 8 µM) | relative viability (GSK126 + Olaparib; first compound 0.08 µM) | relative viability (GSK126 + Olaparib; first compound 0.253 µM) | relative viability (GSK126 + Olaparib; first compound 0.8 µM) | relative viability (GSK126 + Olaparib; first compound 2.53 µM) | relative viability (GSK126 + Olaparib; first compound 8 µM)
1 | NCI-H1437 | 0.487 | 0.518 | 0.452 | 0.463 | 0.5 | 0.909 | 0.96 | 0.892 | 0.936 | 0.805 | 0.44 | 0.504 | 0.406 | 0.455 | 0.405 | 0.649 | 0.621 | 0.605 | 0.554 | 0.575
2 | PC-3 [JPC-3] | 0.781 | 0.67 | 0.628 | 0.616 | 0.65 | 1.03 | 1.04 | 0.962 | 0.966 | 0.902 | 0.808 | 0.795 | 0.814 | 0.781 | 0.762 | 1.1 | 1.14 | 1.09 | 1.15 | 1.12
3 | LK-2 | 0.772 | 0.973 | 0.624 | 0.58 | 0.846 | 0.196 | 0.224 | 0.242 | 0.233 | 0.228 | 0.772 | 0.54 | 0.637 | 0.658 | 0.486 | 0.904 | 0.71 | 0.727 | 0.859 | 0.689
4 | NCI-H1651 | 0.851 | 0.77 | 0.826 | 0.771 | 0.711 | 0.931 | 0.929 | 0.738 | 0.748 | 0.712 | 0.55 | 0.548 | 0.601 | 0.608 | 0.584 | 0.183 | 0.175 | 0.176 | 0.178 | 0.161
5 | LC-2-ad | 0.91 | 0.934 | 0.923 | 0.882 | 0.8 | 0.478 | 0.448 | 0.388 | 0.31 | 0.416 | 0.506 | 0.687 | 0.647 | 0.522 | 0.567 | 0.703 | 0.698 | 0.67 | 0.712 | 0.357
6 | NCI-H1734 | 0.69 | 0.718 | 0.659 | 0.637 | 0.501 | 0.682 | 0.673 | 0.637 | 0.716 | 0.614 | 0.49 | 0.403 | 0.408 | 0.43 | 0.45 | 0.633 | 0.685 | 0.628 | 0.701 | 0.756
7 | NCI-H460 | 0.161 | 0.139 | 0.155 | 0.0949 | 0.0458 | 0.799 | 0.809 | 0.76 | 0.614 | 0.16 | 0.371 | 0.391 | 0.335 | 0.361 | 0.338 | 0.434 | 0.397 | 0.388 | 0.326 | 0.29
8 | NCI-H838 | 0.558 | 0.519 | 0.536 | 0.515 | 0.541 | 0.838 | 0.918 | 0.784 | 0.861 | 0.797 | 0.507 | 0.35 | 0.403 | 0.426 | 0.369 | 0.82 | 0.817 | 0.738 | 0.714 | 0.769
9 | NCI-H2347 | 0.319 | 0.271 | 0.244 | 0.287 | 0.265 | 0.903 | 0.697 | 0.635 | 0.571 | 0.632 | 0.602 | 0.661 | 0.567 | 0.511 | 0.616 | 0.562 | 0.524 | 0.529 | 0.581 | 0.62
10 | NCI-H647 | 0.533 | 0.483 | 0.413 | 0.469 | 0.457 | 1.11 | 1.04 | 1.01 | 1.11 | 0.632 | 0.441 | 0.351 | 0.404 | 0.528 | 0.337 | 0.742 | 0.438 | 0.57 | 0.714 | 0.56
11 | NCI-H520 | 0.856 | 0.812 | 0.724 | 0.766 | 0.484 | 0.943 | 0.914 | 0.709 | 0.576 | 0.601 | 0.265 | 0.261 | 0.271 | 0.256 | 0.281 | 0.401 | 0.347 | 0.311 | 0.462 | 0.37
